Assay results as given in US11130769B2 (Prelude Therapeutics Incorporated, priority 2018, dated 2021).

What was measured:
[1] = test system: H929 cells; assay: Cell viability assay (H929 10 FBS); assay type: cell-based; settings: Homo sapiens, NCI-H929, 24 hours, read-out: H929_10FBS IC50
Summary of the method: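 H929 cells, 4000/well, in RPMI 1640 with 10% FBS, sodium pyruvate, HEPES and glucose were exposed to compound 24 h at 37 °C. Viability read as luminescence after 30-60 min at RT with CellTiter-Glo or ATPlite 1 Step.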

[2] = target: MCL-1 (Homo sapiens (Human), UniProt Q07820); assay: Cell free Mcl-1:Bim affinity assay (fluorescence polarization competition); assay type: binding; settings: 15 nM MCL-1, 5 nM FITC-Bim, 1 hour at room temperature; class symbols; read-out: BIM_Ki
Sequence of MCL-1 (Q07820 whole entry): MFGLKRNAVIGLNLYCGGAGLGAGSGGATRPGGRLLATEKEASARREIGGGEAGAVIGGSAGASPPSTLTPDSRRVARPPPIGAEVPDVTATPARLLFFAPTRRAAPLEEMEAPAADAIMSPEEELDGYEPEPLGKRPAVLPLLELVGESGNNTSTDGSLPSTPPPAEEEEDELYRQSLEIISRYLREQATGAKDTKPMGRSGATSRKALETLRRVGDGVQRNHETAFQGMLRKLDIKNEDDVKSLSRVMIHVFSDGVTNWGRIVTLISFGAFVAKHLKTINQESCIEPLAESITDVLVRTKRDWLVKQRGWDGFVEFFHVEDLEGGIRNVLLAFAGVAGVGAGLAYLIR
Summary of the method: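 Compounds competed with FITC-labelled Bim peptide (5 nM) for MCL-1 (15 nM) in HEPES/NaCl buffer with 1% DMSO, 1 h at room temperature. Fluorescence polarization (535 nm emission) gave % inhibition versus DMSO and positive controls; IC50 from 10-point curves, converted to Ki by the Nikolovska-Coleska equation.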

Row | Compound | IC50 [1] | Ki [2]
1 | CC1(C)OC/C=C/[C@H](OC(=O)NC2CCC2)[C@@H]2CC[C@H]2CN2C[C@@]3(CCCc4cc(Cl)ccc43)COc3ccc(cc32)S(=O)(=O)NC1=O [Example 184, [(3R,6R,7S,8E,22S)-6′-Chloro-12,12-dimethyl-13,15,15-trioxo-spiro[11,20-dioxa-15-thia-1,14-diazatetracyclo[14.7.2.03,6.019,24]pentacosa-8,16,18,24-tetraene-22,1′-tetralin]-7-yl] N-cyclobutylcarbamate] | < 500 nM | < 1 nM
2 | CN(C)C1CN(C(=O)O[C@H]2/C=C/COC(C)(C)C(=O)NS(=O)(=O)c3ccc4c(c3)N(C[C@@H]3CC[C@H]32)C[C@@]2(CCCc3cc(Cl)ccc32)CO4)C1 [Example 52, [(3R,6R,7S,8E,22S)-6′-Chloro-12,12-dimethyl-13,15,15-trioxo-spiro[11,20-dioxa-15-thia-1,14-diazatetracyclo[14.7.2.03,6.019,24]pentacosa-8,16,18,24-tetraene-22,1′-tetralin]-7-yl] 3-(dimethylamino)azetidine-1-carboxylate] | < 500 nM | < 1 nM
3 | CN1CCCN(C(=O)O[C@H]2/C=C/COC(C)(C)C(=O)NS(=O)(=O)c3ccc4c(c3)N(C[C@@H]3CC[C@H]32)C[C@@]2(CCCc3cc(Cl)ccc32)CO4)CC1 [Example 54, [(3R,6R,7S,8E,22S)-6′-Chloro-12,12-dimethyl-13,15,15-trioxo-spiro[11,20-dioxa-15-thia-1,14-diazatetracyclo[14.7.2.03,6.019,24]pentacosa-8,16,18,24-tetraene-22,1′-tetralin]-7-yl] 4-methyl-1,4-diazepane-1-carboxylate] | < 500 nM | < 1 nM
4 | CC(C)NC(=O)O[C@H]1/C=C/CN(C)C(C)(C)C(=O)NS(=O)(=O)c2ccc3c(c2)N(C[C@@H]2CC[C@H]21)C[C@@]1(CCCc2cc(Cl)ccc21)CO3 [Example 207, [(3R,6R,7S,8E,22S)-6′-Chloro-11,12,12-trimethyl-13,15,15-trioxo-spiro[20-oxa-15-thia-1,11,14-triazatetracyclo[14.7.2.03,6.019,24]pentacosa-8,16,18,24-tetraene-22,1′-tetralin]-7-yl] N-isopropylcarbamate] | < 500 nM | < 1 nM
5 | CN(C(=O)O[C@H]1/C=C/CN(C)C2(CCC2)C(=O)NS(=O)(=O)c2ccc3c(c2)N(C[C@@H]2CC[C@H]21)C[C@@]1(CCCc2cc(Cl)ccc21)CO3)C1CCOCC1 [Example 239, [(3R,6R,7S,8E,22S)-6′-Chloro-11-methyl-12,12-(1,3-propylene)-13,15,15-trioxo-spiro[20-oxa-15-thia-1,11,14-triazatetracyclo[14.7.2.03,6.019,24]pentacosa-8,16,18,24-tetraene-22,1′-tetralin]-7-yl] N-methyl-N-tetrahydropyran-4-yl-carbamate] | < 500 nM | < 1 nM
6 | CO[C@@H]1/C=C/CC[C@@H](C)C(=O)NS(=O)(=O)c2ccc3c(c2)N(C[C@@H]2CC[C@H]21)C[C@@]1(CCCc2cc(Cl)ccc21)CO3 [Example 72, (3R,6R,7R,8E,12R,22S)-6′-Chloro-7-methoxy-12-methyl-15,15-dioxo-spiro[20-oxa-15-thia-1,14-diazatetracyclo[14.7.2.03,6.019,24]pentacosa-8,16(25),17,19(24)-tetraene-22,1′-tetralin]-13-one] | > 1000 nM | 1 to 100 nM
7 | CO[C@@H]1/C=C/CO[C@@H](C)C(=O)NS(=O)(=O)c2ccc3c(c2)N(C[C@@H]2CC[C@H]21)C[C@@]1(CCCc2cc(Cl)ccc21)CO3 [Example 114, (3R,6R,7R,8E,12S,22S)-6′-Chloro-7-methoxy-12-methyl-15,15-dioxo-spiro[11,20-dioxa-15-thia-1,14-diazatetracyclo[14.7.2.03,6.019,24]pentacosa-8,16,18,24-tetraene-22,1′-tetralin]-13-one] | < 1000 nM | < 1 nM
8 | CC1(C)CN(C(=O)O[C@H]2/C=C/COC(C)(C)C(=O)NS(=O)(=O)c3ccc4c(c3)N(C[C@@H]3CC[C@H]32)C[C@@]2(CCCc3cc(Cl)ccc32)CO4)CCO1 [Example 158, [(3R,6R,7S,8E,22S)-6′-Chloro-12,12-dimethyl-13,15,15-trioxo-spiro[11,20-dioxa-15-thia-1,14-diazatetracyclo[14.7.2.03,6.019,24]pentacosa-8,16,18,24-tetraene-22,1′-tetralin]-7-yl] 2,2-dimethylmorpholine-4-carboxylate] | < 500 nM | < 1 nM
9 | CN1C/C=C/[C@H](OCCN2CCCCC2)[C@@H]2CC[C@H]2CN2C[C@@]3(CCCc4cc(Cl)ccc43)COc3ccc(cc32)S(=O)(=O)NC(=O)C1(C)C [Example 289, (3R,6R,7S,8E,22S)-6′-Chloro-11,12,12-trimethyl-15,15-dioxo-7-[2-(1-piperidyl)ethoxy]spiro[20-oxa-15-thia-1,11,14-triazatetracyclo[14.7.2.03,6.019,24]pentacosa-8,16,18,24-tetraene-22,1′-tetralin]-13-one] | > 1000 nM | 1 to 100 nM
10 | COCCNC(=O)O[C@H]1/C=C/COC(C)(C)C(=O)NS(=O)(=O)c2ccc3c(c2)N(C[C@@H]2CC[C@H]21)C[C@@]1(CCCc2cc(Cl)ccc21)CO3 [Example 191, [(3R,6R,7S,8E,22S)-6′-Chloro-12,12-dimethyl-13,15,15-trioxo-spiro[11,20-dioxa-15-thia-1,14-diazatetracyclo[14.7.2.03,6.019,24]pentacosa-8,16,18,24-tetraene-22,1′-tetralin]-7-yl] N-(2-methoxyethyl)carbamate] | < 500 nM | < 1 nM
11 | CCN1C/C=C/[C@H](OC(=O)N2CCN(CCOC)CC2)[C@@H]2CC[C@H]2CN2C[C@@]3(CCCc4cc(Cl)ccc43)COc3ccc(cc32)S(=O)(=O)NC(=O)C1(C)C [Example 225, [(3R,6R,7S,8E,22S)-6′-Chloro-11-ethyl-12,12-dimethyl-13,15,15-trioxo-spiro[20-oxa-15-thia-1,11,14-triazatetracyclo[14.7.2.03,6.019,24]pentacosa-8,16,18,24-tetraene-22,1′-tetralin]-7-yl] 4-(2-methoxyethyl)piperazine-1-carboxylate] | < 500 nM | 1 to 100 nM
12 | CN(C(=O)O[C@H]1/C=C/CN(C)C(C)(C)C(=O)NS(=O)(=O)c2ccc3c(c2)N(C[C@@H]2CC[C@H]21)C[C@@]1(CCCc2cc(Cl)ccc21)CO3)[C@@H]1CCOC1 [Example 218, [(3R,6R,7S,8E,22S)-6′-Chloro-11,12,12-trimethyl-13,15,15-trioxo-spiro[20-oxa-15-thia-1,11,14-triazatetracyclo[14.7.2.03,6.019,24]pentacosa-8,16,18,24-tetraene-22,1′-tetralin]-7-yl] N-methyl-N-[(3R)-tetrahydrofuran-3-yl]carbamate] | < 500 nM | < 1 nM
13 | CC1(C)OC/C=C/[C@H](OC(=O)N2CCC(O)CC2)[C@@H]2CC[C@H]2CN2C[C@@]3(CCCc4cc(Cl)ccc43)COc3ccc(cc32)S(=O)(=O)NC1=O [Example 190, [(3R,6R,7S,8E,22S)-6′-Chloro-12,12-dimethyl-13,15,15-trioxo-spiro[11,20-dioxa-15-thia-1,14-diazatetracyclo[14.7.2.03,6.019,24]pentacosa-8,16,18,24-tetraene-22,1′-tetralin]-7-yl] 4-hydroxypiperidine-1-carboxylate] | < 500 nM | < 1 nM
